From the supplement of paper PMC13380429

How the values were obtained:
Caco-2 [1] = assay: drug sensitivity score (DSS) for viability; higher = more toxic; extreme values may be limits of the assay; settings: 72 h
HepG2 [2] = assay: as above; settings: 72 h
Caco-2 [3] = assay: relative viability EC50 (midpoint between 100% and the lowest measured viability); higher = less toxic; settings: 72 h
HepG2 [4] = assay: as above; settings: 72 h
Caco-2 [5] = assay: cell viability relative to DMSO; higher = less toxic; settings: 72 h
HepG2 [6] = assay: as above; settings: 72 h
[7] = test system: A549-ACE2 infected with SARS-CoV-2; assay: cell count relative to DMSO; higher = less toxic; settings: 24 h
[8] = test system: A549-ACE2 infected with SARS-CoV-2; assay: SARS-CoV-2 infection rate relative to DMSO; higher = more infection; settings: 24 h
[9] = test system: A549-ACE2 infected with SARS-CoV-2; assay: morphology score (similarity to uninfected cells); higher = more like uninfected cells; settings: 24 h
A549-ACE2 = assay: drug-induced phospholipidosis relative to tamoxifen; higher = more phospholipidosis
Calu-3 [10] = assay: drug sensitivity score (DSS) for viability; higher = more toxic; extreme values may be limits of the assay; settings: 72 h
U2OS [11] = assay: as above; settings: 72 h
Vero E6 [12] = assay: as above; settings: 72 h
Calu-3 [13] = assay: relative viability EC50 (midpoint between 100% and the lowest measured viability); higher = less toxic; settings: 72 h
U2OS [14] = assay: as above; settings: 72 h
Vero E6 [15] = assay: as above; settings: 72 h
Calu-3 [16] = assay: cell viability relative to DMSO; higher = less toxic; settings: 72 h
U2OS [17] = assay: as above; settings: 72 h
Vero E6 [18] = assay: as above; settings: 72 h

O=c1oc(-c2ccc(C(F)(F)F)cc2)nn1Cc1cc(Cl)ccc1O
Settings | drug sensitivity score | relative viability EC50 [µM]
Caco-2 [1] | 0 | –
Caco-2 [3] | – | > 10
HepG2 [2] | 0 | –
HepG2 [4] | – | > 10

Settings | SARS-CoV-2 infection rate [%] | cell count [%] | cell viability [%] | morphology score
Caco-2 [5], 1 nM | – | – | 109 | –
Caco-2 [5], 10 nM | – | – | 94.7 | –
Caco-2 [5], 100 nM | – | – | 101 | –
Caco-2 [5], 1000 nM | – | – | 99.2 | –
Caco-2 [5], 10000 nM | – | – | 92.6 | –
HepG2 [6], 1 nM | – | – | 105 | –
HepG2 [6], 10 nM | – | – | 107 | –
HepG2 [6], 100 nM | – | – | 99.7 | –
HepG2 [6], 1000 nM | – | – | 99.2 | –
HepG2 [6], 10000 nM | – | – | 97.3 | –
[7], 0.3 µM | – | 101 | – | –
[7], 3 µM | – | 102 | – | –
[7], 10 µM | – | 80 | – | –
[7], 30 µM | – | 65 | – | –
[8], 0.3 µM | 84 | – | – | –
[8], 3 µM | 102 | – | – | –
[8], 10 µM | 99 | – | – | –
[8], 30 µM | 68 | – | – | –
[9], 0.3 µM | – | – | – | 0.38
[9], 3 µM | – | – | – | -0.01
[9], 10 µM | – | – | – | 0.05
[9], 30 µM | – | – | – | 0.43

drug-induced phospholipidosis [%], A549-ACE2
Settings | 0.3 µM | 0.833333 µM | 3.33333 µM | 6.66667 µM | 10 µM | 30 µM
24 h | -1 | -1.2 | -2.36 | -1.21 | 0.96 | 6.42
48 h | 3.5 | -0.73 | 0.6 | 1.96 | 2.52 | 8.32
72 h | 4.07 | 0.196 | 1.24 | 1.18 | 2.49 | 10.1

C[C@@H]1C[C@@H]([C@H](O)CC2CC(=O)NC(=O)C2)C(=O)[C@@H](C)C1 [cycloheximide]
Settings | drug sensitivity score
Calu-3 [10] | 7.3
HepG2 [2] | 14.3
U2OS [11] | 13.8
Vero E6 [12] | 13.8

[9]
Settings | morphology score
0.3 µM | 0.91
3 µM | 0.69
10 µM | 0.52
30 µM | 0.48

[Cl][Ru-]([Cl])([Cl])[Cl].[Na+].c1ccc2[nH]ncc2c1.c1ccc2[nH]ncc2c1 [NKP-1339]
Settings | drug sensitivity score | relative viability EC50 [µM]
Caco-2 [1] | 0.5 | –
Caco-2 [3] | – | > 10
Calu-3 [10] | 0 | –
Calu-3 [13] | – | > 10
U2OS [11] | 0 | –
U2OS [14] | – | > 10
Vero E6 [12] | 0 | –
Vero E6 [15] | – | > 10

Settings | SARS-CoV-2 infection rate, [8] [%] | cell count, [7] [%] | cell viability, Caco-2 [5] [%] | cell viability, Calu-3 [16] [%] | cell viability, U2OS [17] [%] | cell viability, Vero E6 [18] [%] | morphology score, [9]
1 nM | – | – | 98.5 | 96.2 | 94.2 | 95.7 | –
10 nM | – | – | 96.6 | 91.9 | 95.9 | 99.2 | –
100 nM | – | – | 94.3 | 93.2 | 100 | 98.9 | –
0.3 µM | 95 | 98 | – | – | – | – | 0.32
1000 nM | – | – | 89.9 | 111 | 98.4 | 104 | –
3 µM | 99 | 103 | – | – | – | – | 0.06
10000 nM | – | – | 85.2 | 96.1 | 99.5 | 103 | –
10 µM | 97 | 100 | – | – | – | – | 0.14
30 µM | 91 | 105 | – | – | – | – | 0.16

drug-induced phospholipidosis [%], A549-ACE2
Settings | 0.3 µM | 0.833333 µM | 3.33333 µM | 6.66667 µM | 10 µM | 30 µM
24 h | -0.57 | 0.18 | -2.08 | -1.49 | -1.44 | 2.85
48 h | 0.31 | 0.08 | -0.84 | -0.18 | -0.5 | 1.39
72 h | 0.516 | -1.21 | -0.615 | -0.927 | 0.0701 | 3.63

Cc1nn(C)c2c1C(c1cccc(Cl)c1)=NCCN2 [zometapine]
Settings | drug sensitivity score | relative viability EC50 [µM]
Caco-2 [1] | 0 | –
Caco-2 [3] | – | > 10
Calu-3 [10] | 0 | –
Calu-3 [13] | – | > 10
HepG2 [2] | 0 | –
HepG2 [4] | – | > 10
U2OS [11] | 0 | –
U2OS [14] | – | > 10
Vero E6 [12] | 0 | –
Vero E6 [15] | – | > 10

cell viability [%]
Settings | Caco-2 [5] | Calu-3 [16] | HepG2 [6] | U2OS [17] | Vero E6 [18]
1 nM | 95.7 | 102 | 93.3 | 95.6 | 104
10 nM | 86.7 | 104 | 105 | 105 | 105
100 nM | 82.4 | 99.8 | 99.9 | 98.4 | 98
1000 nM | 117 | 101 | 106 | 102 | 97.8
10000 nM | 105 | 98.2 | 89 | 96.9 | 95.1

CNC(=O)c1cc(Oc2ccc(NC(=O)Nc3ccc(Cl)c(C(F)(F)F)c3)cc2)ccn1 [sorafenib]
Settings | drug sensitivity score | relative viability EC50 [µM]
Caco-2 [1] | 2.9 | –
Caco-2 [3] | – | 3.04
Calu-3 [10] | 0.2 | –
Calu-3 [13] | – | > 10
HepG2 [2] | 7.9 | –
HepG2 [4] | – | 1.64
U2OS [11] | 2.6 | –
U2OS [14] | – | 3.88
Vero E6 [12] | 1.7 | –

Settings | SARS-CoV-2 infection rate, [8] [%] | cell count, [7] [%] | cell viability, Caco-2 [5] [%] | cell viability, Calu-3 [16] [%] | cell viability, HepG2 [6] [%] | cell viability, U2OS [17] [%] | cell viability, Vero E6 [18] [%] | morphology score, [9]
1 nM | – | – | 95.1 | 107 | 105 | 98.7 | 97.4 | –
10 nM | – | – | 93.2 | 104 | 113 | 99.1 | 98.9 | –
100 nM | – | – | 96.1 | 109 | 99.2 | 103 | 104 | –
0.1 µM | 110 | 97 | – | – | – | – | – | -0.27
0.3 µM | 103 | 101 | – | – | – | – | – | -0.32
1000 nM | – | – | 99.1 | 108 | 80.5 | 111 | 113 | –
1 µM | 116 | 92 | – | – | – | – | – | -0.4
3 µM | 103 | 93 | – | – | – | – | – | -0.27
10000 nM | – | – | 47.9 | 82.2 | 12.7 | 39.7 | 55.6 | –

drug-induced phospholipidosis [%], A549-ACE2
Settings | 0.3 µM | 0.833333 µM | 3.33333 µM | 6.66667 µM | 10 µM | 30 µM
24 h | -0.66 | -4.32 | -10.5 | -0.85 | -20.6 | -18.5
48 h | 0.68 | -2.57 | -3.57 | 0.31 | – | –
72 h | 3.23 | -1.46 | -1.25 | -4.18 | – | –

c1ccc2c(CC3=NCCN3)cccc2c1 [naphazoline]
Settings | drug sensitivity score | relative viability EC50 [µM]
Caco-2 [1] | 0 | –
Caco-2 [3] | – | > 10
Calu-3 [10] | 0 | –
Calu-3 [13] | – | > 10
HepG2 [2] | 0 | –
HepG2 [4] | – | > 10
U2OS [11] | 0 | –
U2OS [14] | – | > 10
Vero E6 [12] | 0 | –
Vero E6 [15] | – | > 10

cell viability [%]
Settings | Caco-2 [5] | Calu-3 [16] | HepG2 [6] | U2OS [17] | Vero E6 [18]
1 nM | 95.6 | 93.6 | 96.1 | 97 | 102
10 nM | 102 | 93.6 | 102 | 101 | 99.4
100 nM | 90.1 | 109 | 102 | 94.9 | 95.5
1000 nM | 101 | 107 | 98.4 | 97.8 | 97.7
10000 nM | 93.2 | 89 | 118 | 93.9 | 93.3

CCOC(=S)SSC(=S)OCC [dixanthogen]
Settings | drug sensitivity score | relative viability EC50 [µM]
Caco-2 [1] | 0 | –
Caco-2 [3] | – | > 10
Calu-3 [10] | 0 | –
Calu-3 [13] | – | > 10
HepG2 [2] | 0.1 | –
HepG2 [4] | – | > 10
U2OS [11] | 0 | –
U2OS [14] | – | > 10
Vero E6 [12] | 0 | –
Vero E6 [15] | – | > 10

cell viability [%]
Settings | Caco-2 [5] | Calu-3 [16] | HepG2 [6] | U2OS [17] | Vero E6 [18]
1 nM | 104 | 101 | 101 | 104 | 97.3
10 nM | 96.3 | 106 | 111 | 99.7 | 95.6
100 nM | 104 | 104 | 101 | 100 | 91.5
1000 nM | 118 | 96 | 95.1 | 101 | 90.4
10000 nM | 104 | 103 | 88.8 | 104 | 97.3
